Our source for the IC50 and Activity values is ChEMBL document CHEMBL3297680, “Pharmacophore based virtual screening, molecular docking and biological evaluation to identify novel PDE5 inhibitors with vasodilatory activity” (Bioorg Med Chem Lett, 2014).

By IC50 is commonly meant the midpoint of a concentration-inhibition curve.

The first test deals with cGMP-specific 3',5'-cyclic phosphodiesterase (Homo sapiens, UniProt O76074). As to the kind of experiment: Inhibition of PDE5 (unknown origin).
`CC(C)CCc1nc2c([nH]1)C(=O)N(C)C1=N[C@@H]3CCC[C@@H]3N12` showed an IC50 of 0.05 µM.

The molecule `CCCCCCc1nc2c([nH]1)C(=O)N(C)C1=N[C@@H]3CCC[C@@H]3N12` came in with an IC50 of 0.01 µM.

In turn, `CCCc1nc2c([nH]1)N1C(=N[C@@H]3CCC[C@@H]31)N(C)C2=O` registered an IC50 of 0.8 µM.

On to `Cc1nc2c([nH]1)C(=O)N(C)C1=N[C@@H]3CCC[C@@H]3N12`, for which the IC50 was found to be 2.4 µM.

Turning to `CN1C(=O)c2c(nc(Cc3ccccc3)n2Cc2ncc[nH]2)N2C1=N[C@@H]1CCC[C@@H]12`, half-maximal inhibition (IC50) required 4 µM.

Turning to `CN1C(=O)c2[nH]c(Cc3ccc(-c4ccccc4)cc3)nc2N2CC3(CCCC3)N=C12`, the IC50 turned out to be 0.043 µM.

As to `CCCCCCc1nc2c(n1Cc1ccccc1)C(=O)N(C)C1=N[C@@H]3CCC[C@@H]3N12`, half-maximal inhibition (IC50) was put at 0.8 µM.

Regarding `CN1C(=O)c2[nH]c(C(F)(F)F)nc2N2C1=N[C@@H]1CCC[C@@H]12`, the IC50 was determined as 6.2 µM.

`CN1C(=O)c2c(nc(CC3CCCCC3)n2Cc2ccccc2)N2C1=N[C@@H]1CCC[C@@H]12` came in with an IC50 of 0.59 µM.

`CN1C(=O)c2[nH]c(C#Cc3ccccc3)nc2N2C1=N[C@@H]1CCC[C@@H]12` displayed a 50% inhibitory concentration (IC50) of 6 µM.

Take `CN1C(=O)c2c(nc(-c3ccccc3)n2Cc2ccccc2)N2CC3(CCCC3)N=C12`: the IC50 was determined as 0.011 µM.

Molecule `CN1C(=O)c2[nH]c(Cc3ccc(-c4ccccc4)cc3)nc2N2C1=N[C@@H]1CCC[C@@H]12` displayed an IC50 of 0.066 µM.

`CN1C(=O)c2c(nc(Cc3ccccc3)n2Cc2ccccc2)N2C1=N[C@@H]1CCC[C@@H]12` registered an IC50 of 0.18 µM.

The molecule `CN1C(=O)c2c(nc(C#Cc3ccccc3)n2Cc2ccccc2)N2C1=N[C@@H]1CCC[C@@H]12` came in with an IC50 of 0.004 µM.

As for `CN1C(=O)c2[nH]c(CC3CCCC3)nc2N2C1=N[C@@H]1CCC[C@@H]12`, half-maximal inhibition (IC50) was put at 0.034 µM.

Molecule `CN1C(=O)c2c(nc(CC3CCCC3)n2Cc2ccccc2)N2CC3(CCCC3)N=C12` returned an IC50 of 0.12 µM.

For the molecule `CN1C(=O)c2c(nc(Cc3ccccc3)n2CCO)N2C1=N[C@@H]1CCC[C@@H]12`, the IC50 worked out at 10 µM.

For the molecule `CN1C(=O)c2c(nc(CN3CCCC3)n2Cc2ccccc2)N2C1=N[C@@H]1CCC[C@@H]12`, the IC50 is 1.2 µM.

For `CN1C(=O)c2c(nc(Cc3ccccc3)n2CC2CCCCC2)N2C1=N[C@@H]1CCC[C@@H]12`, the IC50 came out at 0.11 µM.

The molecule `Cc1nc2c(n1Cc1ccccc1)N1CC3(CCCC3)N=C1N(C)C2=O` had an IC50 of 2.9 µM.

In the case of `CCCc1nc2c(n1Cc1ccccc1)C(=O)N(C)C1=N[C@@H]3CCC[C@@H]3N12`, the IC50 stood at 0.51 µM.

`CN1C(=O)c2c(nc(Cc3ccccc3)n2Cc2cccc(O)c2O)N2C1=N[C@@H]1CCC[C@@H]12` showed an IC50 of 0.2 µM.

For the molecule `COCc1nc2c(n1Cc1ccccc1)C(=O)N(C)C1=N[C@@H]3CCC[C@@H]3N12`, the midpoint of inhibition, the IC50, lay at 1 µM.

The molecule `CN1C(=O)c2c(nc(Cc3ccc(-c4ccccc4)cc3)n2Cc2ccccc2)N2C1=N[C@@H]1CCC[C@@H]12` displayed a concentration for half-maximal inhibition (IC50) of 0.305 µM.

Molecule `CN1C(=O)c2[nH]c(CN3CCCC3)nc2N2C1=N[C@@H]1CCC[C@@H]12` showed an IC50 of 16 µM.

With `CN1C(=O)c2[nH]c(CC3CCCCC3)nc2N2C1=N[C@@H]1CCC[C@@H]12`, inhibition was half-maximal at 0.019 µM (IC50).

In turn, `CN1C(=O)c2[nH]c(CC3CCCC3)nc2N2CC3(CCCC3)N=C12` returned an IC50 of 0.026 µM.

`CC(C)CCc1nc2c(n1Cc1ccccc1)C(=O)N(C)C1=N[C@@H]3CCC[C@@H]3N12` yielded an IC50 of 0.56 µM.

`Cc1nc2c([nH]1)C(=O)N(C(C)C)C1=N[C@@H]3CCC[C@@H]3N12` returned an IC50 of 0.24 µM.

In turn, `CN1C(=O)c2[nH]c(-c3ccccc3)nc2N2CC3(CCCC3)N=C12` gave a 50% inhibitory concentration (IC50) of 3.3 µM.

On to `CN1C(=O)c2c(nc(CC3CCCC3)n2Cc2ccccc2)N2C1=N[C@@H]1CCC[C@@H]12`, for which the midpoint of inhibition, the IC50, lay at 0.275 µM.

In turn, `CN1C(=O)c2c(nc(Cc3ccc(-c4ccccc4)cc3)n2Cc2ccccc2)N2CC3(CCCC3)N=C12` registered an IC50 of 0.2 µM.

As for `CCN1C(=O)c2[nH]c(C)nc2N2C1=N[C@@H]1CCC[C@@H]12`, the IC50 was 0.1 µM.

For the molecule `CN1C(=O)c2c(nc(Cc3ccccc3)n2C)N2CC3(CCCC3)N=C12`, the IC50 is 4.5 µM.

Regarding `CN(C)Cc1nc2c(n1Cc1ccccc1)C(=O)N(C)C1=N[C@@H]3CCC[C@@H]3N12`, it took 5.6 µM to reach half-maximal inhibition (IC50).

As to `CN1C(=O)c2[nH]c(CC3CC3)nc2N2C1=N[C@@H]1CCC[C@@H]12`, the half-inhibitory concentration (IC50) was 0.61 µM.

`CN1C(=O)c2c(nc(CC3CC3)n2Cc2ccccc2)N2C1=N[C@@H]1CCC[C@@H]12` came in with an IC50 of 0.42 µM.

`CN1C(=O)c2c(nc(C(F)(F)F)n2Cc2ccccc2)N2C1=N[C@@H]1CCC[C@@H]12` had an IC50 of 0.4 µM.

`CN1C(=O)c2[nH]c(Cc3ncc[nH]3)nc2N2C1=N[C@@H]1CCC[C@@H]12`: half-maximal inhibition (IC50) was put at 26 µM.

`CN1C(=O)c2c(nc(Cc3ccccc3)n2Cc2ccccc2)N2CC3(CCCC3)N=C12` had an IC50 of 0.12 µM.

For `COCc1nc2c([nH]1)N1C(=N[C@@H]3CCC[C@@H]31)N(C)C2=O`, 13 µM corresponded to half-maximal inhibition (IC50).

For the molecule `Cc1nc2c(n1Cc1ccccc1)C(=O)N(C)C1=N[C@@H]3CCC[C@@H]3N12`, inhibition was half-maximal at 0.225 µM (IC50).

Regarding `CN1C(=O)c2c(nc(Cc3ccccc3)n2Cc2cccnc2)N2C1=N[C@@H]1CCC[C@@H]12`, the IC50 is 4.3 µM.

`CN1C(=O)c2c(nc(Cc3ncc[nH]3)n2Cc2ccccc2)N2C1=N[C@@H]1CCC[C@@H]12` yielded an IC50 of 1.5 µM.

As to `CN1C(=O)c2[nH]c(Cc3ccccc3)nc2N2CC3(CCCC3)N=C12`, 0.019 µM corresponded to half-maximal inhibition (IC50).

The subject of a further test is Aorta. As to the kind of experiment: Vasodilatory activity in phenylephrine-induced pre-contracted Wistar rat aortic ring assessed as relaxation at 10 '-6 M. The class given is functional. On the set-up: scale not given: the % may be the effect or the level left.
Turning to `CCCCC(=O)c1cc(OC)cc(OC)c1`, the Activity is reported as 50%.

A further test deals with Aorta. Nature of the test: Vasodilatory activity in phenylephrine-induced pre-contracted Wistar rat aortic ring assessed as relaxation at 10 '-2 M. In kind it is functional. Set-up: scale not given: the % may be the effect or the level left.
On to `CCCc1nn(C)c2c(=O)[nH]c(-c3cc(S(=O)(=O)N4CCN(C)CC4)ccc3OCC)nc12`, for which the Activity came to 50%.

In the case of `CCCCC(=O)c1cc(OC)cc(OC)c1`, the Activity is listed as 50%.

Turning to `CCOC(=O)c1cnc2nc(N)ccc2c1O`, the Activity came out at 50%.

The subject of a further test is Aorta. Nature of the test: Vasodilatory activity in phenylephrine-induced pre-contracted Wistar rat aortic ring assessed as relaxation at 10 '-5 M. The class given is functional. On the set-up: scale not given: the % may be the effect or the level left.
Turning to `CCCc1nn(C)c2c(=O)[nH]c(-c3cc(S(=O)(=O)N4CCN(C)CC4)ccc3OCC)nc12`, the Activity is 50%.

On to `CCCCC(=O)c1cc(OC)cc(OC)c1`, for which the Activity was found to be 50%.

For `CCOC(=O)c1cnc2nc(N)ccc2c1O`, the Activity is 50%.

The test system of a further test is Aorta. As to the kind of experiment: Vasodilatory activity in phenylephrine-induced pre-contracted Wistar rat aortic ring assessed as relaxation at 10 '-4 M. The class given is functional. Set-up: scale not given: the % may be the effect or the level left.
For `CCCCC(=O)c1cc(OC)cc(OC)c1`, the Activity is 50%.

Turning to `CC(CC/N=C/c1ccccc1O)/N=C/c1ccccc1O` (centres undefined), the Activity was determined as 50%.
